Experimental data taken from paper PMC3253112, “Functional Evolution of Duplicated Odorant-Binding Protein Genes, Obp57d and Obp57e, in Drosophila” (PLoS ONE, 2012).
Where a chain is given by its changes, count along the chain named.

Key:
Test in all cases: intrinsic tryptophan fluorescence quenching
Format in all cases: binding
Settings in all cases: 20 mM sodium acetate pH 5.0, 25 °C, 1 µM OBP; Q = ligand concentration at which 3% of OBP is bound
Dmel\OBP57e = target: T1, Dmel\OBP57e (Drosophila melanogaster, UniProt Q9V938)
T1 construct: mature protein, signal peptide removed, untagged; cloning primer encodes NTSVFNP
T1 sequence (Q9V938 21-136): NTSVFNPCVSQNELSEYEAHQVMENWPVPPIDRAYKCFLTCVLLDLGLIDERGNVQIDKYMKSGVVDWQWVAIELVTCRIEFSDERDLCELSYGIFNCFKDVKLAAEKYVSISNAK

Dpse\OBP57de = target: T2, Dpse\OBP57de (Drosophila pseudoobscura, UniProt A0A6I8UUP3)
T2 construct: gene LOC4804642; mature protein, signal peptide removed, untagged, Met added; primer encodes N-terminus HSNTAIFN
T2 sequence (A0A6I8UUP3 20-133): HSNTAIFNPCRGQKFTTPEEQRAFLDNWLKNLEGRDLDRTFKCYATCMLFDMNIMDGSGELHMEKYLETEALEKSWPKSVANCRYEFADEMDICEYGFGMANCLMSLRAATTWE

Dmel\OBP57d [1] = target: T3, Dmel\OBP57d (Drosophila melanogaster, UniProt Q8MMF9, P52A)
T3 construct: mature protein, signal peptide removed, untagged, Met added; primer encodes N-terminus NDPCPHNQGID, C-terminus LTKS
T3 sequence (Q8MMF9 30-136 P52A): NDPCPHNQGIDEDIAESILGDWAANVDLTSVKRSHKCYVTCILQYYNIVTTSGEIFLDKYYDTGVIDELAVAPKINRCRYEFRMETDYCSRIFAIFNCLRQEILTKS

Dmel\OBP57d [2] = target: T4, Dmel\OBP57d (Drosophila melanogaster, UniProt Q8MMF9)
T4 construct: mature protein, signal peptide removed, untagged, Met added; primer encodes N-terminus NDPCPHNQGID, C-terminus LTKS
T4 sequence (Q8MMF9 30-136): T3 sequence (Q8MMF9 30-136 P52A) with A23P

Dmel\OBP57d [3] = target: T5, Dmel\OBP57d (Drosophila melanogaster, UniProt Q8MMF9, D96A)
T5 construct: mature protein, signal peptide removed, untagged, Met added; primer encodes N-terminus NDPCPHNQGID, C-terminus LTKS
T5 sequence (Q8MMF9 30-136 D96A): T3 sequence (Q8MMF9 30-136 P52A) with A23P, D67A

Dmel\OBP57d [4] = target: T6, Dmel\OBP57d (Drosophila melanogaster, UniProt Q8MMF9, Y89A)
T6 construct: mature protein, signal peptide removed, untagged, Met added; primer encodes N-terminus NDPCPHNQGID, C-terminus LTKS
T6 sequence (Q8MMF9 30-136 Y89A): T3 sequence (Q8MMF9 30-136 P52A) with A23P, Y60A

Dmel\OBP57d [5] = target: T7, Dmel\OBP57d (Drosophila melanogaster, UniProt Q8MMF9, DEL101-101)
T7 construct: mature protein, signal peptide removed, untagged, Met added; primer encodes N-terminus NDPCPHNQGID, C-terminus LTKS
T7 sequence (Q8MMF9 with tags, fused parts or gaps DEL101-101): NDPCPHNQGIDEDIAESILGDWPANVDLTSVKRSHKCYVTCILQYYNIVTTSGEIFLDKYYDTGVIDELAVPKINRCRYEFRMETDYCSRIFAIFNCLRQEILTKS

Dmel\OBP57d [6] = target: T8, Dmel\OBP57d (Drosophila melanogaster, UniProt Q8MMF9, C33A)
T8 construct: mature protein, signal peptide removed, untagged, Met added; primer encodes N-terminus NDPCPHNQGID, C-terminus LTKS
T8 sequence (Q8MMF9 30-136 C33A): T3 sequence (Q8MMF9 30-136 P52A) with C4A, A23P

Dmel\OBP57d [7] = target: T9, Dmel\OBP57d (Drosophila melanogaster, UniProt Q8MMF9, L133A)
T9 construct: mature protein, signal peptide removed, untagged, Met added; primer encodes N-terminus NDPCPHNQGID, C-terminus LTKS
T9 sequence (Q8MMF9 30-136 L133A): T3 sequence (Q8MMF9 30-136 P52A) with A23P, L104A

Compound: CCCCCCCCCC(=O)O [C10, decanoic acid]
- Q (quenching value) (Dmel\OBP57e): particularly obvious in the affinity to C10–C13 fatty acids and 1-tridecanol

Compound: CCCCCCCCCCC(=O)O [C11, C11 fatty acid]
- Q (quenching value) (Dmel\OBP57e): particularly obvious in the affinity to C10–C13 fatty acids and 1-tridecanol

Compound: CCCCCCCCCCCC(=O)O [C12, C12 fatty acid]
- Q (quenching value) (Dmel\OBP57e): particularly obvious in the affinity to C10–C13 fatty acids and 1-tridecanol
- Q (quenching value) (Dpse\OBP57de): The binding affinity of Dmel\OBP57e and Dpse\OBP57de to the same set of compounds was examined

Compound: CCCCCCCCCCCCC(=O)O [C13, tridecanoic acid]
- Q (quenching value) (Dmel\OBP57d [1]): none showed a complete loss of interaction with ligands
- Q (quenching value) (Dmel\OBP57d [2]): the strongest interaction was observed with the longer chain fatty acid (tridecanoic acid: C13)
- Q (quenching value) (Dmel\OBP57d [3]): none showed a complete loss of interaction with ligands
- Q (quenching value) (Dmel\OBP57d [4]): none showed a complete loss of interaction with ligands
- Q (quenching value) (Dmel\OBP57d [5]): none showed a complete loss of interaction with ligands
- Q (quenching value) (Dmel\OBP57e): Dmel\OBP57e also showed higher affinity than Dpse\OBP57de, not only to tridecanoic acid
- Q (quenching value) (Dmel\OBP57d [6]): none showed a complete loss of interaction with ligands
- Q (quenching value) (Dmel\OBP57d [7]): none showed a complete loss of interaction with ligands
